What all share (assay type): in vivo, C57BL/6 mice
Data set [1] concerns serum cytokines TNF-α, IL-12, IL-6, MCP-1, IFN-γ. Nature of the data set: Serum cytokine secretion in mouse model of ConA hepatitis. To be noted: MEAN ± SEM. As for the experimental part: The test materials and animals were the same as those in Experimental Example 1.
Grouping: C57BL/6 mice, male, 18-20 g, after 1 day of adaptive breeding, the mice were randomly divided into 6 groups: normal control group; ConA model group, Cimicifugae rhizoma compatibility group, Cimicifugae rhizoma group, Cimicifugae rhizoma total phenolic acid group and isoferulic acid group.
Model preparation and drug administration: except the normal control group, mice were injected intravenously once at a dose of ConA 15 mg/kg. The dosages of each drug group were the same as those of Experimental Example 1.
(3) The effects of drugs in each treatment group on serum cytokine secretion in ConA mice were examined. Six mice from each group. Peripheral blood was collected 3 hours after ConA injection and serum was separated to detect the secretion of cytokines TNF-α, IL-12, IL-6 and MCP-1. Serum was separated 10 hours after ConA injection to detect cells factor IFN-γ secretion.

The next data set in a line: Body weight of CIA mice. The following applies: day 21 of the second immunization; MEAN ± SEM. The text has this:
The test materials and animals were the same as those in Experimental Example 3.
Model preparation and administration: same as in Experimental Example 3. On day 21 of the second immunization, the mice were weighed.

A further data set concerns CIA arthritis mice. Description: Micro-CT of joint structure / bone damage in CIA mice. To be noted: 21 days after second immunization, MEAN ± SEM. The text has this: (§1) Test materials and animals: Consistent with Experimental Example 3. Anti-type II collagen antibody ELISA kit was purchased from Chondrex, Cytokine & Chemokine 36-Plex Mouse ProcartaPlex™ Panel 1A cytokine and chemokine detection kit was purchased from ThermoFisher.
(§2) Model preparation and drug administration: the drug dosage of each treatment group was the same as that of Experimental Example 3. After 21 days of the second immunization, the mice were anesthetized.
(1) Micro-CT technology was used to examine the effect of each drug group on the joint structure of CIA mice. After taking 3 mice from each group, the right hind limbs were taken immediately after neck dissection and fixed in 4% neutral formalin. After 2-3 days of fixation, a micro-CT scan was performed using a live animal imaging system. Extraction site: extracted the data of the area above the tibial plaque plate of the right hind limb of the mouse. 3 sets of data were taken. Size selection: the upper part of the tibial plaque plate (0.25*0.25*0.25); measurement indicators of the extracted bones: bone density, bone volume, bone volume fraction and number of bone trabeculae.

The subject of the next data set is serum cytokines. Description: Serum cytokines in CIA arthritis mice (multi-factor detection). The following applies: MEAN ± SEM.
From the text: as §1, §2
(3) The effects of each drug group on cytokine secretion in serum and joint tissues of CIA mice were measured. Seven mice from each group were examined; peripheral blood was collected and separated from serum. Cytokines in serum were detected by multiple factors: IFN-γ, IL-6, IL-9, IL-12, IL-17A, IP-10, MCP-1, MCP-3. MIP-1α, MIP-1β, Eotaxin, and G-CSF; the right hind limb knees, joints and claws were taken and stored in liquid nitrogen for quick freezing, then homogenized and extracted protein. Multi-factor detection of cytokines in tissues: IL-9, IL-18 and MIP-2 secretion.

The subject of data set [2] is CD48-CD11b+ positive granulocytes. Description: Proportion of granulocytes in CIA arthritis mice (flow cytometry). To be noted: CD48-CD11b+ granulocytes to white blood cells; 21 days after second immunization; MEAN ± SEM. The text has this:
Test materials and animals: CD48 PE and CD11b FITC antibodies were purchased from BD Pharmingen; RBC Lysis Buffer was purchased from Biolegend of the United States; other required reagents were the same as in Experimental Example 3.
Model preparation and drug administration: the administration dose of each treatment group was the same as that of Experimental Example 3. 21 days after the second immunization, the mice were anesthetized.
Animal: C57BL/6 mouse, purchased from Beijing Huafukang Biotechnology Co., Ltd.
Preparation of bone marrow single cell suspension: After anesthesia of C57BL/6 mice, the two pairs of femur and tibia of the mouse were separated, PBS was pipetted with a 2 mL syringe to flush the bone marrow cells into a flow tube, and pipetted repeatedly to obtain the bone marrow single cell suspension. The bone marrow was filtered into a flow tube with a 400-mesh strainer, discarded the supernatant after centrifugation, added 2 mL of RBC Lysis Buffer and lysed at room temperature for 15 min. Discarded the supernatant by centrifugation, harvested the bone marrow cells, resuspended by adding 1 mL of PBS, and repeatedly mixing by pipetting 100 μL into the flow tube for surface staining. […]

The mark [3] stands for this setting: serum 3 hours after ConA injection.

In data set [1] (setting [3]), `COc1ccc(C=CC(=O)O)cc1O` [isoferulic acid, 3-hydroxy-4-methoxycinnamic acid] yielded an IL-6 of 1422 ± 214.2 pg/mL, an IL-12 of 183.7 ± 33.4 pg/mL, an MCP-1 of 5708 ± 145.5 pg/mL and a TNF-α of 260.4 ± 119.5 pg/mL. Besides, the IFN-γ in data set [1] (serum 10 hours after ConA injection) worked out at 574 ± 70.4 pg/mL. The same compound gave a Body weight in the data set “Body weight of CIA mice” of 21.6 ± 0.4 g. Further, in the data set with CIA arthritis mice (area above tibial plate of right hind limb), the Bone density was determined as 9.5 ± 1.5 mg/cc. For the same compound, in the data set with CIA arthritis mice (right hind limb), the Bone volume turned out to be 0.0014 ± 0.0005 mm 3, the Bone volume fraction is 0.095 ± 0.034 and the number of trabeculae is 2.042 ± 0.572 1/mm. Further, in the data set with serum cytokines, the Eotaxin worked out at 349.6 ± 85.4 pg/mL, the G-CSF is 4 ± 1.2 pg/mL, the IL-6 stood at 23.3 ± 21.6 pg/mL and the IL-9 worked out at 15 ± 5.8 pg/mL. In addition, in the data set with serum cytokines, the IL-12 was 21.9 ± 3.5 pg/mL, the IL-17A is 4.9 ± 3.1 pg/mL, the IP-10 is 52.8 ± 20.8 pg/mL and the MCP-1 worked out at 139.3 ± 43.4 pg/mL. In the data set on serum cytokines, this compound gave an MCP-3 of 151.9 ± 20 pg/mL, an MIP-1α of 2.4 ± 0.6 pg/mL and an MIP-1β of 3.2 ± 1.1 pg/mL. In addition, the IFN-γ in the data set on serum cytokines (isoferulic acid 5 mg/kg) came out at 120.6 ± 37.1 pg/mL. Also, in data set [2], the “proportion of granulocytes, Bone marrow” value is on record as 44.6 ± 5.1 % and the “proportion of granulocytes, spleen” value is given as 9 ± 4.4 %.

These data come from patent US20200108032A1, “USE OF ISOFERULIC ACID, ISOFERULIC ACID-CONTAINING TRADITIONAL CHINESE MEDICINE EXTRACT AND CIMICIFUGAE RHIZOMA” (BEIJING DITAN HOSPITAL, CAPITAL MEDICAL UNIVERSITY, priority 2017, published 2020).
